According to paper PMC10709440, “High-throughput ligand profile characterization in novel cell lines expressing seven heterologous insect olfactory receptors for the detection of volatile plant biomarkers” (Scientific Reports, 2023):
Like-named read-outs stand apart in the source and are kept apart here.

What was measured:
OR49b = test system: OR49b; design: method as in earlier work; details: DoOR database value, ref DoOR, cited from earlier work
OR85b = test system: OR85b; design: method as in earlier work; details: DoOR database value, ref DoOR, cited from earlier work
OR71a = test system: OR71a; design: method as in earlier work; details: DoOR database value, ref DoOR, cited from earlier work
OR47a = test system: OR47a; design: method as in earlier work; details: DoOR database value, ref DoOR, cited from earlier work
OR98a = test system: OR98a; design: method as in earlier work; details: DoOR database value, ref DoOR, cited from earlier work
Drosophila OR85b = target: T1, Drosophila OR85b (Drosophila melanogaster, UniProt Q9VHQ7); test: Calcium ion fluorescence (GCaMP6) assay, OR85b stable HEK293 cell line; type: cell-based; details: for OR85b response (VUAA1-normalized) at 1 μM / OR85b response (VUAA1-normalized) at 10 μM / OR85b response (VUAA1-normalized) at 100 μM / Average response: OR85b cell line; for Average response: VUAA1-normalized response, mean of biological replicates
T1 construct: expressed in transfected cells
T1 sequence (Q9VHQ7 1-390): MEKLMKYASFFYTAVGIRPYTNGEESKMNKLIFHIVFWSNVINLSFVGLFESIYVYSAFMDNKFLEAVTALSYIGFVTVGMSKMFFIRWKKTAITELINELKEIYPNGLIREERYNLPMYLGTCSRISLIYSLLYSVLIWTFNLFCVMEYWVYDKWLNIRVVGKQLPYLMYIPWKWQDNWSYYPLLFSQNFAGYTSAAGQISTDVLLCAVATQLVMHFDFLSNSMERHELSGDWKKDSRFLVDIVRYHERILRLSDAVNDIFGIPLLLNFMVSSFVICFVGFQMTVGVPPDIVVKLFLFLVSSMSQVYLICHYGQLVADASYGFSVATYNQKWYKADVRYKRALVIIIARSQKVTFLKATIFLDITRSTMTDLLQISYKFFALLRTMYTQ
T1 sequence (Q9VNB5 1-486 partner): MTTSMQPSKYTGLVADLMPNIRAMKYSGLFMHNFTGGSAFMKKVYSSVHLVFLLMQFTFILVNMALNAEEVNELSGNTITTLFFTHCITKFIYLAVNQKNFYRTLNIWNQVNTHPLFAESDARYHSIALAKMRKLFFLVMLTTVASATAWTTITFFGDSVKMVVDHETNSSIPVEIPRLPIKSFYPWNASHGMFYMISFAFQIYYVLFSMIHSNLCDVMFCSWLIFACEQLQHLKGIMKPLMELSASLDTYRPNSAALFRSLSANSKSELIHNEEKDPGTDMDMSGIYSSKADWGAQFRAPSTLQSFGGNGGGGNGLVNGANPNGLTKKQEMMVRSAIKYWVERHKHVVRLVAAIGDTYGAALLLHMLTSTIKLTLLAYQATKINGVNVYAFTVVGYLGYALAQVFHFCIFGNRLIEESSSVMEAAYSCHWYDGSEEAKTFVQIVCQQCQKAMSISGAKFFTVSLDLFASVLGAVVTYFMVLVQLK
Summary of the method: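 Responses are VUAA1-normalized ΔF: each VOC-evoked calcium signal, (FMAX−F0)/F0 over 30 s after injection, divided by the same line's mean 50 µM VUAA1 response. Cells were doxycycline-induced HEK293 with GCaMP6 and the cognate Drosophila OR, in HEPES buffer pH 7.3; ligands tested 0.01–100 μM.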

OR13a = test system: OR13a; design: method as in earlier work; details: DoOR database value, ref DoOR, cited from earlier work
OR10a = test system: OR10a; design: method as in earlier work; details: DoOR database value, ref DoOR, cited from earlier work
[1] = HEK293, read-out: OR85b Average response (VUAA1-normalized)
[2] = ligand concentration 1 (unit not given), threshold 0.05, below shown as 0
[3] = ligand concentration 10 (unit not given), threshold 0.05, below shown as 0
[4] = ligand concentration 100 (unit not given), threshold 0.05, below shown as 0
[5] = HEK293, read-out: OR85b response (VUAA1-normalized response)

Structure (SMILES)	OR49b DoOR response (OR49b; OR49b)	OR85b DoOR response (OR85b; OR85b)	OR71a DoOR response (OR71a; OR71a)	OR47a DoOR response (OR47a; OR47a)	OR98a DoOR response (OR98a; OR98a)	OR85b response (VUAA1-normalized) at 1 μM (Drosophila OR85b; VOC concentration 1 μM)	OR85b response (VUAA1-normalized) at 10 μM (Drosophila OR85b; VOC concentration 10 μM)	OR85b response (VUAA1-normalized) at 100 μM (Drosophila OR85b; VOC concentration 100 μM)	Average response (Drosophila OR85b; cc. 1 µM)	Average response (Drosophila OR85b; cc. 10 µM)	Average response (Drosophila OR85b; cc. 100 µM)	DF norm AVERAGE OR85b (Drosophila OR85b; [2])	DF norm AVERAGE OR85b (Drosophila OR85b; [3])	DF norm AVERAGE OR85b (Drosophila OR85b; [4])	OR13a DoOR response (OR13a; OR13a)	OR10a DoOR response (OR10a; OR10a)	further results
COC(=O)c1ccccc1O [methyl salicylate]	0.05	0.009	0.47	-0.032	0.034	0.00	0.00	0.13	0.00	0.0263	0.13	0	0	0.1286	0.07	0.75	activation at 1 µM (Drosophila OR85b; [1]): 0%; activation at 10 µM (Drosophila OR85b; [1]): 3%; activation at 100 µM (Drosophila OR85b; [1]): 13%
Cc1ccc(C(C)C)cc1 [p-cymene]	0.014	-0.004	0.063	0.018	-0.012	0.00	0.12	0.09	0.00	0.12	0.09	0	0.1172	0.09049	–	-0.003	–
CCCCCOC(C)=O [pentyl acetate]	0.022	0.56	–	0.82	0.64	0.00	0.00	0.14	0.0185	0.04	0.14	0	0	0.1368	0.39	0.03	activation at 1 µM (Drosophila OR85b; [1]): 2%; activation at 10 µM (Drosophila OR85b; [1]): 4%; activation at 100 µM (Drosophila OR85b; [1]): 14%
C=CC(C)(O)CCC=C(C)C (centres unmarked) [linalool]	0.016	0.16	–	0.04	0.47	0.00	0.00	0.06	0.045	0.00	0.06	0	0	0.06299	0.16	0.001	–
COC(=O)c1ccccc1 [methyl benzoate]	0.035	0.036	0.28	0.09	0.70	0.00	0.00	0.00	0.00	0.00	0.00	0	0	0	–	0.63	–
CCOC(=O)CC [ethyl propionate]	–	–	–	–	–	–	–	–	0.00	0.037	0.09	0	0	0.09327	–	–	OR49b DoOR response (OR49b): 0.017; OR85b DoOR response (OR85b): 0.066; OR47a DoOR response (OR47a): 0.16; OR98a DoOR response (OR98a): 0.08; activation at 1 µM (Drosophila OR85b; [5]): 0%; activation at 10 µM (Drosophila OR85b; [5]): 0%; activation at 100 µM (Drosophila OR85b; [5]): 9%; OR13a DoOR response (OR13a): 0.034; OR10a DoOR response (OR10a): 0.064
CC/C=C\CCO [Z-3-hexenol]	0.07	0.60	–	0.14	0.44	0.0533	0.00	0.00	–	–	–	–	–	–	0.37	0.007	–
CCCCCC(=O)CC [3-octanone]	–	–	–	–	–	–	–	–	0.00	0.00	0.09	–	–	–	–	–	OR71a DoOR response (OR71a): 0.016; activation at 1 µM (Drosophila OR85b; [5]): 0%; activation at 10 µM (Drosophila OR85b; [5]): 0%; activation at 100 µM (Drosophila OR85b; [5]): 9%; DF norm AVERAGE OR85b (Drosophila OR85b; concentration 1, normalized fluorescence change, values below 0.05 threshold given as 0): 0; DF norm AVERAGE OR85b (Drosophila OR85b; concentration 10, normalized fluorescence change, values below 0.05 threshold given as 0): 0; DF norm AVERAGE OR85b (Drosophila OR85b; concentration 100, normalized fluorescence change, values below 0.05 threshold given as 0): 0.08805
CC(C)=CCC/C(C)=C/CC/C(C)=C/CO [e,e-farnesol]	–	–	–	–	–	–	–	–	0.053	0.08	0.00	0.05296	0.07925	0	–	–	OR71a DoOR response (OR71a): 0.11; OR85b response (VUAA1-normalized response) (Drosophila OR85b; VOC concentration 1 μM): 0.053; OR85b response (VUAA1-normalized response) (Drosophila OR85b; VOC concentration 10 μM): 0.08; OR85b response (VUAA1-normalized response) (Drosophila OR85b; VOC concentration 100 μM): 0.00; OR13a DoOR response (OR13a): 0.075; OR10a DoOR response (OR10a): 0.014
